Patent publication US20200246284A1 (Academia Sinica, priority 2015, published 2020)
Where “and” joins values, the source holds several entries; their conditions need not be identical. Equal entries are not always repeated. Where two headings read alike, the source gives them in different places.

Legend:
[1] = test system: spontaneous murine B-cell lymphoma; assay: Cytotoxicity, with or without MS5 stromal cells; conditions: read-out: cytotoxicity IC50; murine BCL, spontaneous NSG CD19+, no stromal support
[2] = test system: Mino; assay: Cytotoxicity mantle cell lymphoma; conditions: read-out: cytotoxicity IC50; Mino, mantle cell lymphoma
Procedure: (§1) After 72 hours, the cultures were pulsed with Alamar Blue overnight, and the fluorescent intensity of resulted cultures was measured by a Synergy H1 plate-reader (BioTek Inc).

[3] = test system: DLBCL (GBC) cell lines; assay: Combination of BO-1055 with PUH71, TT46, bortezomib, doxorubicin (Table 25); format: cell-based; conditions: Homo sapiens, read-out: IC50 single agent
[4] = test system: Ly18; assay: Cytotoxicity DLBCL; conditions: read-out: cytotoxicity IC50; LY18, DLBCL GCB
Procedure: as §1

[5] = test system: NECB-1; assay: Cytotoxicity mantle cell lymphoma; conditions: read-out: cytotoxicity IC50; NECB-1, mantle cell lymphoma
Procedure: as §1

[6] = test system: U2932; assay: Cytotoxicity DLBCL; conditions: read-out: cytotoxicity IC50; U2932, DLBCL ABC
Procedure: as §1

[7] = test system: Mino; assay: Combination with BO-1055, MCL (Tables 28, 29); format: cell-based, human; conditions: Mino; combo-1 BO-1055 variable, combo-2 partner variable
[8] = test system: Z-138; assay: Combination with BO-1055, MCL (Tables 28, 29); format: cell-based, human; conditions: Z-138; combo-1 BO-1055 variable, combo-2 partner variable
[9] = test system: Toledo; assay: Cytotoxicity DLBCL; conditions: read-out: cytotoxicity IC50, DLBCL GCB
Procedure: as §1

[10] = test system: REC-1; assay: Combination with BO-1055, MCL (Tables 28, 29); format: cell-based, human; conditions: REC-1; combo-1 BO-1055 variable, combo-2 partner variable
[11] = test system: SUDHL-5; assay: Cytotoxicity DLBCL; conditions: read-out: cytotoxicity IC50; SUDHL-5, DLBCL GCB
[12] = test system: SUDHL-6; assay: Cytotoxicity DLBCL; conditions: read-out: cytotoxicity IC50; SUDHL-6, DLBCL GCB
Procedure: as §1

[13] = test system: Z-138; assay: Cytotoxicity mantle cell lymphoma; conditions: read-out: cytotoxicity IC50; Z-138, mantle cell lymphoma
Procedure: as §1

[14] = test system: JEKO-1; assay: Cytotoxicity mantle cell lymphoma
Procedure: as §1

[15] = test system: LY1; assay: Cytotoxicity DLBCL; conditions: read-out: cytotoxicity IC50; LY1, DLBCL GCB
Procedure: as §1

[16] = test system: SUDHL-4; assay: Cytotoxicity DLBCL; conditions: read-out: cytotoxicity IC50; SUDHL-4, DLBCL GCB
Procedure: as §1

[17] = test system: Granta; assay: Combination with BO-1055, MCL (Tables 28, 29); format: cell-based, human; conditions: Granta; combo-1 BO-1055 variable, combo-2 partner variable
[18] = test system: Karpas-422; assay: Cytotoxicity DLBCL; conditions: read-out: cytotoxicity IC50; Karpas-422, DLBCL GCB
Procedure: as §1

[19] = test system: Granta-519; assay: Cytotoxicity mantle cell lymphoma; conditions: read-out: cytotoxicity IC50; Granta-519, mantle cell lymphoma
Procedure: as §1

[20] = test system: NECB1; assay: Combination with BO-1055, MCL (Tables 28, 29); format: cell-based, human; conditions: NECB1; combo-1 BO-1055 variable, combo-2 partner variable
[21] = test system: Ly3 (OCI-LY3); assay: Cytotoxicity DLBCL; conditions: read-out: cytotoxicity IC50; LY3, DLBCL ABC
Procedure: as §1

[22] = test system: HBL1; assay: Cytotoxicity DLBCL; conditions: read-out: cytotoxicity IC50; HBL1, DLBCL ABC
Procedure: as §1

[23] = test system: Ly8; assay: Cytotoxicity DLBCL; conditions: read-out: cytotoxicity IC50; LY8, DLBCL GCB
Procedure: as §1

**Q.** With `CC(C)NCCCn1c(Sc2cc3c(cc2I)OCO3)nc2c(N)ncnc21` [PUH71] as the molecule, how does the IC50 [1] read?
**A.** 240 nM

**Q.** And the IC50 [2]?
**A.** 260 nM

**Q.** And the IC50 ([3]; Farage)?
**A.** 785 nM

**Q.** And the IC50 ([3]; KARPAS-422, KARPAS-422)?
**A.** 1520 nM

**Q.** What about the IC50 ([3]; OCI-LY19, OCI-LY19) of the same molecule?
**A.** 221 nM

**Q.** What about the IC50 ([3]; OCI-Ly8, OCI-LY8) of the same molecule?
**A.** 814 nM

**Q.** And the IC50 ([3]; OCI-Ly18, OCI-LY18)?
**A.** 274 nM

**Q.** And the IC50 ([3]; OCY-LY1)?
**A.** 208 nM

**Q.** And the IC50 ([3]; OCY-LY7)?
**A.** 391 nM

**Q.** And the IC50 ([3]; PFEIFER)?
**A.** 335 nM

**Q.** What about the IC50 ([3]; SU-DHL-4, SUDHL4) of the same molecule?
**A.** 379 nM

**Q.** And the IC50 ([3]; SU-DHL-5, SUDHL5)?
**A.** 336 nM

**Q.** What about the IC50 ([3]; SU-DHL-6, SUDHL6) of the same molecule?
**A.** 672 nM

**Q.** What about the IC50 ([3]; Toledo) of the same molecule?
**A.** 10900 nM

**Q.** What about the IC50 [4] of the same molecule?
**A.** 270 nM

**Q.** And the IC50 [5]?
**A.** 1660 nM

**Q.** What about the IC50 [6] of the same molecule?
**A.** 490 nM

**Q.** And the “interaction with BO-1055” value [7]?
**A.** dually synergistic

**Q.** What about the “interaction with BO-1055” value [8] of the same molecule?
**A.** synergistic with BO-1055 in both combinations

**Q.** What about the IC50 [9] of the same molecule?
**A.** 2660 nM

**Q.** What about the “interaction with BO-1055” value [10] of the same molecule?
**A.** antagonistic against REC-1 in both combinations

**Q.** And the IC50 [11]?
**A.** 410 nM

**Q.** What about the IC50 [12] of the same molecule?
**A.** 50 nM

**Q.** And the IC50 [13]?
**A.** 60 nM

**Q.** And the IC50 ([14]; JEKO-1, 72 hr (Table 27))?
**A.** 310 nM

**Q.** And the IC50 ([14]; read-out: cytotoxicity IC50, JEKO-1, mantle cell lymphoma)?
**A.** 260 nM

**Q.** What about the IC50 [15] of the same molecule?
**A.** 260 nM and 308 nM

**Q.** And the IC50 [16]?
**A.** 200 nM

**Q.** What about the “interaction with BO-1055” value [17] of the same molecule?
**A.** dually antagonistic

**Q.** And the IC50 [18]?
**A.** 450 nM

**Q.** And the IC50 [19]?
**A.** 1220 nM

**Q.** And the “interaction with BO-1055” value [20]?
**A.** synergistic with BO-1055 against NECB1 in combo-1 and antagonistic in combo-2

**Q.** And the IC50 [21]?
**A.** 2780 nM

**Q.** What about the IC50 [22] of the same molecule?
**A.** 1670 nM

**Q.** And the IC50 [23]?
**A.** 810 nM
